Measurements: patent publication US20070135366A1, “Method for assessing cancerous state” (SUMITOMO CHEMICAL COMPANY, LIMITED., priority 2003, published 2007)

What was measured:
[1] = test system: Fibrillin2 gene expression in pancreatic cancer cell line HPAC; test: Effect of methylation inhibitor on expression of Fibrillin2 gene (Real Time PCR of mRNA-derived DNA) in HPAC; assay type: cell-based, human; conditions: added on first and third day after seeding, cells recovered on fourth day
Procedure: (§1) seven kinds of human-derived pancreatic cancer cell lines (BXPc3, HPAF-II, Capan-2, MiaPaCa-2, Hs766T, PANC-1 and HPAC) and immortal (normal) pancreatic ductal epithelial cells lines (HPDE-4/E6E7 and HPDE6-E6E7c7) were cultured to 70% confluent in an exclusively used medium, and thereafter, each cell was corrected. 1 ml of an ISOGEN solution (Nippon Gene) was mixed with collected each cell (wet weight about 100 mg), this was homogenized, and 0.2 ml of chloroform was added thereto to suspend them. After suspending, the mixture was centrifuged (4° C., 15000×g, 15 minutes) to recover the supernatant. […]
(§2) A reaction solution of PCR was used which was obtained by mixing 50 ng of a cDNA as a template, each 1 μl of two kinds of 10 pmol/μl aforementioned primer solution, 4 μl of 2.5 mM dNTP, 4 μl of 5 mM dUTP, 5 μl of 10×SYBR Green PCR Buffer, 6 μl of 25 mM MgCl2 and 0.3 μl of a 5U/μl thermos table DNA polymerase (AmpliTaq Gold), 0.5 μl of AmpEraseUNG and adding sterilized ultrapure water thereto to an amount of solution of 50 μl. […] When a DNA derived from mRNA of Fibrillin2 gene and GAPDH gene was amplified, after the reaction solution was retained at 95° C. for 10 minutes, Real Time PCR was performed at the conditions under which each cycle was 30 seconds at 95° C., 30 seconds at 59° C. and 30 seconds at 72° C. to quantitate Fibrillin2 gene and GAPDH gene.

[2] = test system: Fibrillin2 gene expression in pancreatic cancer cell line PANC-1; test: Effect of methylation inhibitor on expression of Fibrillin2 gene (Real Time PCR of mRNA-derived DNA) in PANC-1; assay type: cell-based, human; conditions: added on first and third day after seeding, cells recovered on fourth day
Procedure: as §1, §2

Measured: DNA derived from a mRNA of Fibrillin2 gene (expression of Fibrillin2 gene)

Nc1ncn([C@H]2C[C@H](O)[C@@H](CO)O2)c(=O)n1 [5Aza-dC, 5-aza-2′-deoxytidine]
detected: [1]; HPAC cultured in the presence of 0.5 μM 5Aza-dC | [1]; HPAC cultured in the presence of 1 μM 5Aza-dC | [2]; PANC-1 cultured in the presence of 0.5 μM 5Aza-dC | [2]; PANC-1 cultured in the presence of 1 μM 5Aza-dC
